Measurements published in US9682069B2, “Methods of treating Dravet syndrome” (Ovid Therapeutics Inc., priority 2015, dated 2017).
Entries after “also recorded” stand apart in the source; their conditions may differ.

Columns and labels:
[1] = 111 individuals with depression; cited from earlier work
[2] = in vivo, po
[3] = Study of driving performance after gaboxadol administration (Example 3); format: in vivo, human (healthy male and female subjects); details: for effect on memory test, body sway, DSST or critical tracking: cognitive and psychomotor test battery before the driving test
Text: The study participants included healthy, male and female subjects between 21 and 45 years of age, with a valid drivers license for at least 3 years.
Following a cognitive and psychomotor test battery, the driving test started at 9 am and lasted for one hour.

[4] = Study of daytime performance after sleep restriction (Example 4); format: in vivo, human (healthy adults)
Method: The study included a 2-night single-blind placebo run-in period, a 4-night double-blind treatment period during which sleep was restricted to 5 hours and a 2-night single-blind placebo run-out period. The study included healthy male and female volunteers 18 to <55 years of age.
2-night run-in period: All patients received placebo
2-night run-out period: All patients received placebo
The primary endpoints included observations based on the Multiple Sleep Latency Test (MSLT) and Slow Wave Sleep (SWS) assessment.

[5] = three-month efficacy study, insomnia; cited from earlier work

For `OC(c1ccccc1)(c1ccccc1)C1CCCCN1` (centres unmarked) [pipradrol], the “efficacy versus placebo in depression” value [1] is given as “not superior to placebo”.
For `CCN(CC)CCN1C(=O)CN=C(c2ccccc2F)c2cc(Cl)ccc21` [Flurazepam], the “residual effect on primary endpoints Choice Reaction Time and Critical Flicker Fusion” value [2] was “showed significant effect”.
For `Oc1noc2c1CCNC2` [gaboxadol, 4,5,6,7-tetrahydroisoxazolo [5,4-c]pyridine-3-ol], the tolerability ([3]; both the evening and the middle-of-the-night dose, 15 mg) was “well tolerated”, the “effect on memory test, body sway, DSST or critical tracking” value [3] was “no effect” and the “daytime performance, effect sizes for the neurocognitive battery” value ([4]; gaboxadol 15 mg versus placebo) was “no strong evidence that gaboxadol improves daytime performance”. For the same molecule, the “subjective daytime sleepiness versus placebo” value ([4]; gaboxadol 15 mg, Sleep Restriction period) was “trend towards less subjective daytime sleepiness”, the “amount of slow wave sleep (SWS) versus placebo” value ([4]; gaboxadol 15 mg, Sleep Restriction period, p<0.001, 1 sided) was “significantly more SWS; also recorded: increases the amount of slow wave sleep” and the “daytime sleepiness (MSLT) versus placebo” value ([4]; gaboxadol 15 mg, Sleep Restriction period, p=0.047, 1 sided) was “significantly less daytime sleepiness; also recorded: protective effect on reducing daytime sleepiness”. The “MSLT, average difference versus placebo (longer)” value ([4]; gaboxadol 15 mg, last two Sleep Restriction days) was 2.01 min, the “Karolinska Sleepiness Score (KSS), average difference versus placebo (less)” value ([4]; gaboxadol 15 mg, last two Sleep Restriction days, LDA model, p=0.058, 1 sided) was 0.68 and the “SWS, average difference versus placebo (longer)” value ([4]; gaboxadol 15 mg, last two Sleep Restriction nights) was 20.53 min. The “residual effect on primary endpoints Choice Reaction Time and Critical Flicker Fusion” value [2] was “did not show residual effect”, the “residual effects on other measurements (MSLT, DSST, Tracking, Memory tests, Body Sway, Leeds Sleep Evaluation Questionnaire)” value [2] was “did not show any signs of residual effects” and the “effects in sleep onset and sleep maintenance” value [5] was “failed to show significant effects”.
With `Cc1ccc(-c2nc3ccc(C)cn3c2CC(=O)N(C)C)cc1` [zolpidem] the “effect on driving performance, middle-of-the-night administration” value ([3]; dose at 4 am (gaboxadol 15 mg; zolpidem 10 mg), on-the-road driving test at 9 am) was “numerically greater effect”.
In the case of `CN1CCN(C(=O)OC2c3nccnc3C(=O)N2c2ccc(Cl)cn2)CC1` (centres unmarked) [zopiclone], the “effect on memory test, body sway, DSST or critical tracking” value [3] is reported as “had effect on several of these tests” and the “effect on driving performance, evening dose” value ([3]; evening dose before bed (gaboxadol 15 mg; zopiclone 7.5 mg), on-the-road driving test at 9 am) is reported as “numerically greater effect”.
